Laboratory results taken from PubChem BioAssay (NCI).
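Where inhibition never reached the appropriate level, the endpoint shown equals the highest concentration tested. Otherwise, values were interpolated linearly from a five-concentration, 48-hour dose response in 96-well plates. Here, GI50 denotes the concentration required for 50% inhibition of growth. TGI is the concentration that stops growth completely.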

Experiments:
Experiment in all cases: inhibition of tumour cell growth, NCI panel, 48 h
786-0 renal = test system: 786-0 renal
A498 renal = test system: A498 renal
A549 NSCLC = test system: A549 NSCLC
ACHN renal = test system: ACHN renal
BT-549 breast = test system: BT-549 breast
CAKI-1 renal = test system: CAKI-1 renal
CCRF-CEM leukemia = test system: CCRF-CEM leukemia
COLO 205 colon = test system: COLO 205 colon
DU-145 prostate = test system: DU-145 prostate
EKVX NSCLC = test system: EKVX NSCLC
HCC-2998 colon = test system: HCC-2998 colon
HCT-116 colon = test system: HCT-116 colon
HCT-15 colon = test system: HCT-15 colon
HL-60(TB) leukemia = test system: HL-60(TB) leukemia
HOP-62 NSCLC = test system: HOP-62 NSCLC
HOP-92 NSCLC = test system: HOP-92 NSCLC
HS 578T breast = test system: HS 578T breast
HT29 colon = test system: HT29 colon
IGROV1 ovarian = test system: IGROV1 ovarian
K-562 leukemia = test system: K-562 leukemia
KM12 colon = test system: KM12 colon
LOX IMVI melanoma = test system: LOX IMVI melanoma
M14 melanoma = test system: M14 melanoma
MALME-3M melanoma = test system: MALME-3M melanoma
MCF7 breast = test system: MCF7 breast
MDA-MB-231 breast = test system: MDA-MB-231 breast
MDA-MB-435 = test system: MDA-MB-435
MDA-MB-468 breast = test system: MDA-MB-468 breast
MOLT-4 leukemia = test system: MOLT-4 leukemia
NCI-H226 lung = test system: NCI-H226 lung
NCI-H23 lung = test system: NCI-H23 lung
NCI-H460 lung = test system: NCI-H460 lung
NCI-H522 lung = test system: NCI-H522 lung
NCI/ADR-RES ovarian = test system: NCI/ADR-RES ovarian
OVCAR-3 ovarian = test system: OVCAR-3 ovarian
OVCAR-4 ovarian = test system: OVCAR-4 ovarian
OVCAR-5 ovarian = test system: OVCAR-5 ovarian
OVCAR-8 ovarian = test system: OVCAR-8 ovarian
PC-3 prostate = test system: PC-3 prostate
RPMI-8226 leukemia = test system: RPMI-8226 leukemia
RXF 393 renal = test system: RXF 393 renal
SF-268 CNS = test system: SF-268 CNS
SF-295 CNS = test system: SF-295 CNS
SF-539 CNS = test system: SF-539 CNS
SK-MEL-2 melanoma = test system: SK-MEL-2 melanoma
SK-MEL-28 melanoma = test system: SK-MEL-28 melanoma
SK-MEL-5 melanoma = test system: SK-MEL-5 melanoma
SK-OV-3 ovarian = test system: SK-OV-3 ovarian
SN12C renal = test system: SN12C renal
SNB-19 CNS = test system: SNB-19 CNS
SNB-75 CNS = test system: SNB-75 CNS
SR leukemia = test system: SR leukemia
SW-620 colon = test system: SW-620 colon
T-47D breast = test system: T-47D breast
TK-10 renal = test system: TK-10 renal
U251 CNS = test system: U251 CNS
UACC-257 melanoma = test system: UACC-257 melanoma
UACC-62 melanoma = test system: UACC-62 melanoma
UO-31 renal = test system: UO-31 renal

O=C1CCC(N2Cc3c(C#CCCCNC(=O)c4ccc(NC(=O)[C@@H]5NC6(CCCCC6)[C@@]6(C(=O)Nc7cc(Cl)ccc76)[C@H]5c5cccc(Cl)c5F)cc4)cccc3C2=O)C(=O)N1 (stereo partly specified)
GI50 (786-0 renal): 35.2 µM | TGI (786-0 renal): > 100 µM | GI50 (A498 renal): 25.7 µM | TGI (A498 renal): > 100 µM | GI50 (A549 NSCLC): 1.04 µM | TGI (A549 NSCLC): > 100 µM | GI50 (ACHN renal): 3.86 µM | TGI (ACHN renal): > 100 µM | GI50 (BT-549 breast): 13.1 µM | TGI (BT-549 breast): > 100 µM | GI50 (CAKI-1 renal): 1.2 µM | TGI (CAKI-1 renal): > 100 µM | GI50 (CCRF-CEM leukemia): 11.6 µM | TGI (CCRF-CEM leukemia): > 100 µM | GI50 (COLO 205 colon): 72 µM | TGI (COLO 205 colon): > 100 µM | GI50 (DU-145 prostate): > 100 µM | TGI (DU-145 prostate): > 100 µM | GI50 (EKVX NSCLC): 8.32 µM | TGI (EKVX NSCLC): > 100 µM | GI50 (HCC-2998 colon): 9.57 µM | TGI (HCC-2998 colon): > 100 µM | GI50 (HCT-116 colon): 2.45 µM | TGI (HCT-116 colon): > 100 µM | GI50 (HCT-15 colon): 7.72 µM | TGI (HCT-15 colon): > 100 µM | GI50 (HL-60(TB) leukemia): 6.77 µM | TGI (HL-60(TB) leukemia): > 100 µM | GI50 (HOP-62 NSCLC): > 100 µM | TGI (HOP-62 NSCLC): > 100 µM | GI50 (HOP-92 NSCLC): 5.27 µM | TGI (HOP-92 NSCLC): > 100 µM | GI50 (HS 578T breast): 4.3 µM | TGI (HS 578T breast): > 100 µM | GI50 (HT29 colon): 25.2 µM | TGI (HT29 colon): > 100 µM | GI50 (IGROV1 ovarian): 1.76 µM | TGI (IGROV1 ovarian): > 44 µM | GI50 (K-562 leukemia): 65 µM | TGI (K-562 leukemia): > 100 µM | GI50 (KM12 colon): 9.18 µM | TGI (KM12 colon): > 100 µM | GI50 (LOX IMVI melanoma): 0.953 µM | TGI (LOX IMVI melanoma): > 100 µM | GI50 (M14 melanoma): 75 µM | TGI (M14 melanoma): > 100 µM | GI50 (MALME-3M melanoma): 0.159 µM | TGI (MALME-3M melanoma): 20 µM | TGI (MCF7 breast): > 49.8 µM | GI50 (MDA-MB-231 breast): 15.4 µM | TGI (MDA-MB-231 breast): > 100 µM | GI50 (MDA-MB-435): 31.8 µM | TGI (MDA-MB-435): > 100 µM | GI50 (MDA-MB-468 breast): 4.38 µM | TGI (MDA-MB-468 breast): > 35.7 µM | TGI (MOLT-4 leukemia): 1.43 µM | GI50 (NCI-H226 lung): 0.2 µM | TGI (NCI-H226 lung): > 74.5 µM | GI50 (NCI-H23 lung): > 88 µM | TGI (NCI-H23 lung): > 100 µM | GI50 (NCI-H460 lung): 2.09 µM | TGI (NCI-H460 lung): > 100 µM | GI50 (NCI-H522 lung): > 89.9 µM | TGI (NCI-H522 lung): > 100 µM | GI50 (NCI/ADR-RES ovarian): > 100 µM | TGI (NCI/ADR-RES ovarian): > 100 µM | GI50 (OVCAR-3 ovarian): 15.8 µM | TGI (OVCAR-3 ovarian): > 100 µM | GI50 (OVCAR-4 ovarian): 7.28 µM | TGI (OVCAR-4 ovarian): 97.5 µM | GI50 (OVCAR-5 ovarian): > 53.2 µM | TGI (OVCAR-5 ovarian): > 100 µM | GI50 (OVCAR-8 ovarian): > 100 µM | TGI (OVCAR-8 ovarian): > 100 µM | GI50 (PC-3 prostate): 7.52 µM | TGI (PC-3 prostate): > 100 µM | GI50 (RPMI-8226 leukemia): 4.16 µM | TGI (RPMI-8226 leukemia): > 100 µM | GI50 (RXF 393 renal): 5.81 µM | TGI (RXF 393 renal): > 79 µM | GI50 (SF-268 CNS): 26 µM | TGI (SF-268 CNS): > 100 µM | GI50 (SF-295 CNS): 10.8 µM | TGI (SF-295 CNS): > 100 µM | GI50 (SF-539 CNS): 12.9 µM | TGI (SF-539 CNS): > 100 µM | GI50 (SK-MEL-2 melanoma): > 100 µM | TGI (SK-MEL-2 melanoma): > 100 µM | GI50 (SK-MEL-28 melanoma): 96.8 µM | TGI (SK-MEL-28 melanoma): > 100 µM | GI50 (SK-MEL-5 melanoma): 2.33 µM | TGI (SK-MEL-5 melanoma): > 40.2 µM | GI50 (SK-OV-3 ovarian): > 95.6 µM | TGI (SK-OV-3 ovarian): > 100 µM | GI50 (SN12C renal): > 78.2 µM | TGI (SN12C renal): > 100 µM | GI50 (SNB-19 CNS): > 50.1 µM | TGI (SNB-19 CNS): > 100 µM | GI50 (SNB-75 CNS): 2.5 µM | TGI (SNB-75 CNS): > 72.1 µM | GI50 (SR leukemia): 0.25 µM | TGI (SR leukemia): 3.11 µM | GI50 (SW-620 colon): > 100 µM | TGI (SW-620 colon): > 100 µM | GI50 (T-47D breast): 6.68 µM | TGI (T-47D breast): > 100 µM | GI50 (TK-10 renal): > 75.9 µM | TGI (TK-10 renal): > 100 µM | GI50 (U251 CNS): 9.5 µM | TGI (U251 CNS): > 100 µM | GI50 (UACC-257 melanoma): 9.03 µM | TGI (UACC-257 melanoma): > 100 µM | GI50 (UACC-62 melanoma): 0.445 µM | TGI (UACC-62 melanoma): > 100 µM | GI50 (UO-31 renal): 3.04 µM | TGI (UO-31 renal): > 100 µM
